Data published in patent US20190350907A1, “METHODS AND PHARMACEUTICAL COMPOSITIONS FOR REDUCING CD95- MEDIATED CELL MOTILITY” (INSERM (INSTITUT NATIONAL DE LA SANTÉ ET DE LA RECHERCHE …, priority 2017, published 2019).
Values joined by “and” are separate entries in the source; they are usually repeats but may differ in a detail not shown here. Equal values may be shown once. Where no end group is shown, it is not given here.

How the values were obtained:
[1] = system: CD95-mediated Ca2+ signaling pathway in Tfh cells; assay: CD95-mediated Ca2+ response in Tfh cells; format: cell-based, human; conditions: Example 2; signal described for Th17 and circulating Tfh cells
CD95/PLCγ1 interaction = target: T1, CD95/PLCγ1 interaction (Homo sapiens, UniProt P19174); assay: Renilla luciferase protein-fragment complementation assay (PCA), CD95-CID/PLCγ1-SH3; format: cell-based; conditions: PCA in HEK cells
T1 construct: The PLCγ1-SH3 domain (aa 790-851) (C); expressed in transfected cells; host or cells: HEK293T
T1 sequence (P19174 790-851): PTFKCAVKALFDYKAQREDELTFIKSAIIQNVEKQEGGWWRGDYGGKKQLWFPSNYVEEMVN
Protocol: FIG. 1. […] A. Schematic representation of the protein-fragment complementation assay used with CD95-CID or -DD fused to F2 and PLCγ1-SH3 or FADD-DD fused to F1 to identify inhibitors from the Prestwick library. The Renilla luciferase enzyme was divided into amino-terminal and carboxy-terminal fragments (yellow domains) and fused to the indicated domains. B. Compounds from the Prestwick library were tested against CD95/PLCγ1 or CD95/FADD PCA. […] Inhibition of CD95/FADD interaction is also assessed.
Light emission indicates refolding of the luciferase and reconstitution of enzyme activity through protein/protein interactions. […] Data represent means±SD of three independent experiments. […] Then, the indicated peptides fused with or without the cell-penetrating domain TAT were incubated at the indicated concentrations for 4 hrs and luminescence was assessed. Data represent means±SD of three independent experiments. […].
HEK293T cells were electroporated with 5 μg of DNA using BTM-830 electroporation generator (BTX Instrument Division, Harvard Apparatus) with 10 μg of DNA. Transfected cells were cultured for 24 hrs prior to protein complementation assay analyses as previously described (17). Briefly, transfected cells (10^6) were washed, resuspended in 100 μl PBS and deposited in OptiPlate-96 (PerkinElmer, Waltham, Mass., USA). Coelenterazine-h (5 μM, Sigma) was injected to each well and renilla luciferase activity was monitored for the first 10 seconds using Infinite200Pro (Tecan, Männedorf, Switzerland).
A peptide consisting of the cell-penetrating domain of TAT fused to CID (TAT-CID) binds the SH3 domain of PLCγ1 and thereby, prevents PLCγ1/CD95 interaction and the subsequent induction of the Ca^2+ response (16). […] Briefly, the Renilla luciferase enzyme was divided into two fragments (F1 and F2 fragments). […] Interaction of CD95 with PLCγ1 or FADD allows the reconstitution of RLuc and subsequent light emission (FIG. 1A). The chemical Prestwick library was screened against these PCAs (FIG. 1B). […] These molecules are designated CID inhibitors or CIDINH.

[2] = system: Tfh-dependent B cell activation; assay: Tfh-dependent B-cell maturation co-culture (memory B cells with SEB-stimulated Tfh cells, s-CD95L); format: cell-based; conditions: preincubation of Tfh cells
CD95/FADD interaction = target: T2, CD95/FADD interaction (Homo sapiens, UniProt P25445+Q13158); assay: Renilla luciferase protein-fragment complementation assay (PCA), CD95-DD/FADD-DD; format: cell-based; conditions: result in words; selectivity control
T2 construct: DD-CD95 (aa 210-303) fused to F2; the death domain of FADD (aa 80-210) (D) fused to F1; expressed in transfected cells; host or cells: HEK293T
T2 sequence (P25445 226-319): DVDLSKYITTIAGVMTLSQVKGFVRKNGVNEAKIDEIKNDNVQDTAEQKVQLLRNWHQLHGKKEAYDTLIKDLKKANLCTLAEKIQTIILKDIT
T2 sequence (Q13158 80-208): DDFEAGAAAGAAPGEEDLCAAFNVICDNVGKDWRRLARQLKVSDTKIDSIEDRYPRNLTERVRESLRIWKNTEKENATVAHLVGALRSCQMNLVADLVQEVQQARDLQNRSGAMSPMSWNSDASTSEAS
Excerpt: FIG. 1. Identification of chemical leads from the Prestwick library inhibiting the CD95/PLCγ1 interaction. A. Schematic representation of the protein-fragment complementation assay used with CD95-CID or -DD fused to F2 and PLCγ1-SH3 or FADD-DD fused to F1 to identify inhibitors from the Prestwick library. The Renilla luciferase enzyme was divided into amino-terminal and carboxy-terminal fragments (yellow domains) and fused to the indicated domains. B. Compounds from the Prestwick library were tested against CD95/PLCγ1 or CD95/FADD PCA. This library allowed us to select 34 hits based on their ability to inhibit CD95/PLCγ1 interaction (≥70% of signal inhibition) without altering CD95/FADD binding (ratio (CD95/PLCγ1 inhibition/CD95/FADD inhibition) ≥2). […] Inhibition of CD95/FADD interaction is also assessed.
A. CID-CD95 (aa 175-210) or DD-CD95 (aa 210-303) fused to F2 were co-transfected into HEK cells with the indicated domains of PLCγ1 (Ca^2+ response) or FADD (apoptosis) fused to F1. […] The inhibition of light emission for the indicated PPIs was assessed in cells incubated for the indicated times in the presence of TAT-CID (25 μM). […] Then, the indicated peptides fused with or without the cell-penetrating domain TAT were incubated at the indicated concentrations for 4 hrs and luminescence was assessed. […]

[3] = system: lupus-prone mice (MRL Lpr/+); conditions: repeated injections; cited from earlier work

Substance: TAT-CID: peptide consisting of the CID (CD95 amino acids 175 to 210) conjugated to the cell-penetrating domain of TAT (KRKEVQKTCRKHRKENQGSHESPTLNPETVAINLSD; not fully specified (N-terminus); also: conjugated to TAT cell-penetrating domain, site not given here)
- effect on sCD95L-induced Ca2+ response [1]: abrogated
- IC50 (CD95/PLCγ1 interaction; peptides incubated for 4 hours, read-out: IC50, disruption of CD95/PLCγ1 interaction by peptides): 10.8 µM and 11.5 µM
- time course of inhibition of CD95/PLCγ1 (CD95/PLCγ1 interaction; TAT-CID 25 μM): increased in a time dependent manner
- effect on Tfh-dependent B cell activation [2]: blocks
- effect on CD95/FADD interaction (CD95/FADD interaction): failed to alter
- effect on clinical symptoms [3]: alleviate clinical symptoms
- effect on endothelial transmigration of Th17 cells in vivo [3]: block
